Where a chain is given by its changes, count along the chain named.
What was measured:
amide synthetase McbA [1] = assay: Amidation assay with purified McbA variants, products analyzed by LC-MS; type: biochemical, Marinactinospora thermotolerans; settings: for Fold-Increase in yield: best ML-predicted variant (ML-McbA) versus wt-McbA for the named product, purified enzyme 0.5 mg/mL, n=3
Protocol: (§1) Amide products (along with acid substrates and some adenylated acid intermediates) were analyzed using an Agilent G6125B Single Quadrupole LC/MSD system equipped with an electrospray ionization source set to positive ionization mode. The quenched samples were centrifuged for 10 min at 4,500×g to remove precipitated proteins. A separate 384-well plate for sample injection into the HPLC-MS was prepared by diluting 5 μL of the quenched samples with 25 μL of methanol using the Integra VIAFLO. Trace amounts of compounds were detected using MS, while many compounds were present in high enough concentration to quantify by diode array detector (DAD) at 254 nm. Compounds were separated on a Luna C18 Column (Phenomenex 00D-4251-B0) using mobile phases (A) H2O with 0.1% formic acid and (B) Acetonitrile. The general method for chromatographic separation was carried out using the following gradients at a constant flow rate of 0.5 mL/min: 0 min 5% B; 1 min 5% B; 4 min 95% B; 4.5 min 95% B; 5 min 5% B. For the MS, capillary voltage was set at 3 kV, and nitrogen gas was used for nebulizing (35 psig) and drying (12 l/min, 350° C.). The MS was calibrated using Tuning Mix (Agilent G2421-60001) before measurements were taken. MS data were acquired with a scan range of 50-600 m/z with various SIM m/z's according to which compound the inventors were screening for. LC-MS data were collected and analyzed using Agilent OpenLab CDS ChemStation software. The product yield was calculated by dividing the DAD peak area for the amide product by the sums of the peak areas of both the amide and the acid substrate.
Amidation assays for the purified McbA variants were set up similarly as described above. 8-μL reactions were assembled in triplicate, containing […], 10 mM MgCl2, 10 U/mL pyrophosphatase (Sigma I5907), 0.5 mg/mL McbA, 10% v/v DMSO, and volume to fill of 50 mM potassium phosphate pH 7.5. For assaying the production of cinchocaine and procainamide, substrates were decreased in stoichiometric amounts to 20 mM and 10 mM, respectively. This was to compensate for an observed poor solubility of these two acids (2-butoxyquinoline-4-carboxylic acid and 4-aminobenzoic acid) in the purified reaction at 10% v/v DMSO. Reactions were incubated at 37° C. for 16 hours and then quenched with 25-μL of methanol. The CAS numbers of all chemicals used in the hot spot screens, as well as the amide standards the inventors purchased, can be found in Table 1.
With the MLDE strategy validated, the approach could enable parallelized protein engineering for a wide variety of molecules (FIG. 14A). Starting with an identified target reaction from our substrate scope screen (FIGS. 5A-5F), we could use the same instance of our 1,280 single mutant McbA variant library to perform an HSS, select four hot spots, train and implement our machine learning model, and experimentally test the top 24 predictions (FIG. 14B). This approach was used to engineer distinct McbA mutants for the synthesis of an additional six pharmaceutical compounds (FIGS. 14B-14C). After identifying the best predicted variant for each reaction, the best variant for each reaction was expressed and purified, and the activity for each compound compared to wt-McbA (FIG. 14D). Fold-increase in yield observed compares wt-McbA to ML-McbA (n=3) for each small-molecule pharmaceutical. Increases in yield of the best mutant were observed ranging from 1.6-fold to 34-fold over wt-McbA for the six compounds tested.

amide synthetase McbA [2] = assay: Substrate scope screen of McbA (all-by-all acids and amines, RP-HPLC); type: biochemical, Marinactinospora thermotolerans; settings: for wt conversion: conversion to the named amide product by wild-type McbA, ~1 μM enzyme, 25 mM substrates, 10% DMSO
Protocol: as §1, with “MS data were acquired with a scan range of 50-600 m/z with various SIM m/z's according to which compound the inventors were screening for.” left out
(§2) All high-throughput assays (hot spot screen, iterative site saturation mutagenesis, substrate scope, ML predictions validation, and ML prediction exploration) were assembled in 384-well plates (Bio-Rad) using an Integra VIAFLO liquid handling robot. […] The amidation assay was initiated by adding 3-μL of crude CFPS reaction containing an expressed McbA variant, with final concentrations of 25 mM ATP, 25 mM acid, 25 mM amine, 10% v/v DMSO, and ˜1 μM of enzyme (determined by ^14C-leucine incorporation using previously described protocols^66). […]

amide synthetase McbA [3] = assay: High-throughput amidation assay with crude CFPS-expressed McbA variants (hot spot screen, ISM); type: biochemical, Marinactinospora thermotolerans; settings: for conversion (yield) of moclobemide: final screening conditions, moclobemide synthesis, 25 mM ATP, acid, amine, 10% v/v DMSO, 37° C. 16 hours
Protocol: as §1, with “MS data were acquired with a scan range of 50-600 m/z with various SIM m/z's according to which compound the inventors were screening for.” left out
as §2

[4] = Protein melting temperature by circular dichroism; type: physicochemical
Protocol: Protein melting temperature was determined using a Jasco J-810 circular dichroism spectrophotometer with a 10 mm path length cuvette monitored at 222 nm. McbA samples were first buffer exchanged into a 1× phosphate buffered saline solution, pH 7.4, and diluted to 0.2-0.4 mg/mL.

amide synthetase McbA [5] = assay: Apparent steady-state kinetics, amide bond formation coupled to NADH oxidation; type: biochemical, Marinactinospora thermotolerans; settings: kcat/KM for the amine, versus wt-McbA
Protocol: McbA apparent kinetics for the amine pair of moclobemide (4-(2-aminoethyl)morpholine) were determined by enzymatically coupling amide bond formation (and the concomitant release of AMP from the acyl-AMP intermediate by its substitution with the amine) with the oxidation of NADH, as shown in FIGS. 7A-7B. Reactions contained 100 mM MOPS-KOH pH 7.8, 5 mM MgCl2, 2.5 mM phosphoenolpyruvate, 5 mM ATP, 0.3 mM NADH, 50 mM 4-chlorobenzoic acid, 15 U/mL pyruvate kinase and lactate dehydrogenase enzyme mix (Sigma-Aldrich P0294), 25 U/mL myokinase (Sigma-Aldrich 475941), and various concentrations (50-200 μg/mL) of the studied McbA variant. As the acid here (4-chlorobenzoic acid) has poor solubility in water and was dissolved in DMSO, the final reactions contained 10% v/v DMSO (equivalent to our amidation screens). 180-μL reactions were first equilibrated at 30° C. for 3 minutes and then initiated by adding 20-μL of amine. The initial velocity was determined for different concentrations of amine (0.1 mM-50 mM) by measuring NADH absorbance at 340 nm on a Cary 60 UV-Vis (Agilent). Data were collected and analyzed using the Cary WinUV Kinetics Application software (Agilent). Michaelis-Menten graphs were plotted in GraphPad Prism and fit using the default Michaelis-Menten non-linear regression analysis tool.

CCCCOc1cc(C(=O)NCCN(CC)CC)c2ccccc2n1 [Cinchocaine]
Fold-Increase in yield (amide synthetase McbA [1]): 1.7 fold
wt conversion (amide synthetase McbA [2]): 2%

CCN(CC)CCNC(=O)c1ccc(N)c(Cl)c1 [Declopramide]
Fold-Increase in yield (amide synthetase McbA [1]): 2.7 fold

COc1ccc(C(=O)NCc2ccc(OCCN(C)C)cc2)cc1OC [Itopride]
Fold-Increase in yield (amide synthetase McbA [1]): 1.6 fold

CCN(CC)CCNC(=O)c1cc(Cl)c(N)cc1OC [Metoclopramide]
wt conversion (amide synthetase McbA [2]): 3%

CCN(CC)CCNC(=O)c1ccc(N)cc1 [Procainamide]
Fold-Increase in yield (amide synthetase McbA [1]): 10 fold

CCN1CCCC1CNC(=O)c1cc(S(N)(=O)=O)ccc1OC (centres unmarked) [Sulpiride]
Fold-Increase in yield (amide synthetase McbA [1]): 6 fold

COc1cc(C(=O)NCc2ccc(OCCN(C)C)cc2)cc(OC)c1OC [Trimethobenzamide]
Fold-Increase in yield (amide synthetase McbA [1]): 4.1 fold

COc1cc(C(=O)NC2CCCNC2)cc(OC)c1OC (centres unmarked) [Troxipide]
Fold-Increase in yield (amide synthetase McbA [1]): 34 fold

B1: wt-McbA: wild-type amide bond synthetase McbA from Marinactinospora thermotolerans with CSL-tag, SEQ ID NO: 2 (protein)
chain: MEKKIWSHPQFEKGGSGENLYFQGGYARRVMDGIGEVAVTGAGGSVTGARLRHQVRLLAHALTEAGIPPGRGVACLHANTWRAIALRLAVQAIGCHYVGLRPTAAVTEQARAIAAADSAALVFEPSVEARAADLLERVSVPVVLSLGPTSRGRDILAASVPEGTPLRYREHPEGIAVVAFTSGTTGTPKGVAHSSTAMSACVDAAVSMYGRGPWRFLIPIPLSDLGGELAQCTLATGGTVVLLEEFQPDAVLEAIERERATHVFLAPNWLYQLAEHPALPRSDLSSLRRVVYGGAPAVPSRVAAARERMGAVLMQNYGTQEAAFIAALTPDDHARRELLTAVGRPLPHVEVEIRDDSGGTLPRGAVGEVWVRSPMTMSGYWRDPERTAQVLSGGWLRTGDVGTFDEDGHLHLTDRLQDIIIVEAYNVYSRRVEHVLTEHPDVRAAAVVGVPDPDSGEAVCAAVVVADGADPDPEHLRALVRDHLGDLHVPRRVEFVRSIPVTPAGKPDKVKVRTWFTD
modifications: CSL-tag
amide bond formation step for troxipide (amide synthetase McbA [1]; proficient at adenylating 3,4,5-trimethoxybenzoic acid, intermediate seen by LCMS): unable to catalyze amide bond formation
stereoselectivity (amide synthetase McbA [2]; sulpiride synthesis): strongly favoring the synthesis of S-sulpiride over R-sulpiride
conversion (yield) of moclobemide (amide synthetase McbA [3]): 12%

B2: qm-McbAmoclobemide: quadruple mutant of McbA from ISM campaign for moclobemide, SEQ ID NO: 145 (protein)
chain: B1 chain with V177S, I220S, A323F, R430L
melting point change versus wt-McbA [4]: did not significantly change
increase in catalytic efficiency from wt-McbA (amide synthetase McbA [5]): 42 fold
conversion (yield) of moclobemide (amide synthetase McbA [3]): 96%

B3: qm-McbAmetoclopramide: quadruple mutant of McbA from ISM campaign for metoclopramide, SEQ ID NO: 146 (protein)
chain: B1 chain with V177S, T319C, A323F, A424T
activity over wt-McbA (amide synthetase McbA [3]; metoclopramide synthesis, after three rounds of ISM): ~30 fold

B4: ml-McbAtroxipide: best ML-predicted McbA variant for troxipide, SEQ ID NO: 155 (protein)
chain: B1 chain with V177A, A323L, A424T, R430V
increase in activity (amide synthetase McbA [1]; troxipide synthesis, versus wt-McbA): 34 fold
